Assay results published in PubChem BioAssay AID1963856 (Molecular Pharmacology Branch, DTP, NCI, 2024).

Test system: LG0567-F671-PDC KRAS tumor spheroid viability
Assay: Anticancer human tumor LG0567-F671-PDC patient-derived lung adenocarcinoma cell line growth inhibition [KRAS2]
Conditions: spheroids with HUVEC and MSC; for IC50: curve of first compound; for viability, T/C: stronger effect = lower value
How it was run: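 Combination screen of spheroid viability in tumor-cell co-cultures with endothelial (HUVEC) and mesenchymal stem cell stroma. Each agent was tested in half-log dilutions, topping at clinical Cmax or at 10 microM without a known Cmax.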

[1] = second compound 0.1 µM, first compound 0.0316 µM
[2] = second compound 0.316 µM, first compound 0.0316 µM
[3] = second compound 1 µM, first compound 0.0316 µM
[4] = second compound 3.16 µM, first compound 0.0316 µM
[5] = second compound 10 µM, first compound 0.0316 µM
[6] = second compound 0.1 µM, first compound 0.1 µM
[7] = second compound 0.1 µM, first compound 0.316 µM
[8] = second compound 0.1 µM, first compound 1 µM
[9] = second compound 0.1 µM, first compound 3.16 µM
[10] = second compound 0.1 µM, first compound 10 µM
[11] = second compound 0.316 µM, first compound 0.1 µM
[12] = second compound 0.316 µM, first compound 0.316 µM
[13] = second compound 0.316 µM, first compound 1 µM
[14] = second compound 0.316 µM, first compound 3.16 µM
[15] = second compound 0.316 µM, first compound 10 µM
[16] = second compound 1 µM, first compound 0.1 µM
[17] = second compound 1 µM, first compound 0.316 µM
[18] = second compound 1 µM, first compound 1 µM
[19] = second compound 1 µM, first compound 3.16 µM
[20] = second compound 1 µM, first compound 10 µM
[21] = second compound 3.16 µM, first compound 0.1 µM
[22] = second compound 3.16 µM, first compound 0.316 µM
[23] = second compound 3.16 µM, first compound 1 µM
[24] = second compound 3.16 µM, first compound 3.16 µM
[25] = second compound 3.16 µM, first compound 10 µM
[26] = second compound 10 µM, first compound 0.1 µM
[27] = second compound 10 µM, first compound 0.316 µM
[28] = second compound 10 µM, first compound 1 µM
[29] = second compound 10 µM, first compound 3.16 µM
[30] = second compound 10 µM, first compound 10 µM
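Also: drug exposure lasted seven days after spheroids formed for three days.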
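For viability, T/C in this document: 100% = DMSO vehicle control viability.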

SMILES: CC(=O)Nc1cccc(-n2c(=O)n(C3CC3)c(=O)c3c(Nc4ccc(I)cc4F)n(C)c(=O)c(C)c32)c1 + CC1OCC2(CCN(c3cnc(Sc4ccnc(N)c4Cl)c(N)n3)CC2)C1N
- IC50 (second compound 0.1 µM): < 0.1 nM
- IC50 (second compound 0.316 µM): < 0.1 nM
- IC50 (second compound 1 µM): < 0.1 nM
- IC50 (second compound 3.16 µM): < 0.1 nM
- IC50 (second compound 10 µM): < 0.1 nM
- viability, T/C (second compound 0.1 µM, first compound 0.0001 µM): 53.7%
- viability, T/C (second compound 0.1 µM, first compound 0.000316 µM): 44.6%
- viability, T/C (second compound 0.1 µM, first compound 0.001 µM): 49.4%
- viability, T/C (second compound 0.1 µM, first compound 0.00316 µM): 44.7%
- viability, T/C (second compound 0.1 µM, first compound 0.01 µM): 22.7%
- viability, T/C [1]: 7.91%
- viability, T/C (second compound 0.316 µM, first compound 0.0001 µM): 37.1%
- viability, T/C (second compound 0.316 µM, first compound 0.000316 µM): 31.2%
- viability, T/C (second compound 0.316 µM, first compound 0.001 µM): 25.6%
- viability, T/C (second compound 0.316 µM, first compound 0.00316 µM): 21.9%
- viability, T/C (second compound 0.316 µM, first compound 0.01 µM): 14.9%
- viability, T/C [2]: 7.83%
- viability, T/C (second compound 1 µM, first compound 0.0001 µM): 22.4%
- viability, T/C (second compound 1 µM, first compound 0.000316 µM): 21.8%
- viability, T/C (second compound 1 µM, first compound 0.001 µM): 17.6%
- viability, T/C (second compound 1 µM, first compound 0.00316 µM): 8.6%
- viability, T/C (second compound 1 µM, first compound 0.01 µM): 6.42%
- viability, T/C [3]: 3.01%
- viability, T/C (second compound 3.16 µM, first compound 0.0001 µM): 14.7%
- viability, T/C (second compound 3.16 µM, first compound 0.000316 µM): 8.03%
- viability, T/C (second compound 3.16 µM, first compound 0.001 µM): 2.89%
- viability, T/C (second compound 3.16 µM, first compound 0.00316 µM): 1.92%
- viability, T/C (second compound 3.16 µM, first compound 0.01 µM): 1.41%
- viability, T/C [4]: 3.95%
- viability, T/C (second compound 10 µM, first compound 0.0001 µM): 5.94%
- viability, T/C (second compound 10 µM, first compound 0.000316 µM): 2.29%
- viability, T/C (second compound 10 µM, first compound 0.001 µM): 2.96%
- viability, T/C (second compound 10 µM, first compound 0.00316 µM): 1.63%
- viability, T/C (second compound 10 µM, first compound 0.01 µM): 1.31%
- viability, T/C [5]: 2.49%

SMILES: CC(C)NCC(C(=O)N1CCN(c2ncnc3c2C(C)CC3O)CC1)c1ccc(Cl)cc1 (stereo not given) + COc1cc2nc(C)nc(NC(C)c3cc(N)cc(C(F)(F)F)c3)c2cc1OC1CCOC1
- IC50 (second compound 0.1 µM): 484 nM
- IC50 (second compound 0.316 µM): 467 nM
- IC50 (second compound 1 µM): 216 nM
- IC50 (second compound 3.16 µM): 415 nM
- IC50 (second compound 10 µM): 50.7 nM
- viability, T/C [1]: 75.4%
- viability, T/C [6]: 69.1%
- viability, T/C [7]: 56.2%
- viability, T/C [8]: 42%
- viability, T/C [9]: 14.1%
- viability, T/C [10]: 33.5%
- viability, T/C [2]: 75.8%
- viability, T/C [11]: 65.2%
- viability, T/C [12]: 59.1%
- viability, T/C [13]: 33.9%
- viability, T/C [14]: 8.71%
- viability, T/C [15]: 23.5%
- viability, T/C [3]: 71.5%
- viability, T/C [16]: 58.5%
- viability, T/C [17]: 44%
- viability, T/C [18]: 32.2%
- viability, T/C [19]: 7.19%
- viability, T/C [20]: 2.61%
- viability, T/C [4]: 60.1%
- viability, T/C [21]: 58.3%
- viability, T/C [22]: 66.4%
- viability, T/C [23]: 12%
- viability, T/C [24]: 5.68%
- viability, T/C [25]: 19.6%
- viability, T/C [5]: 56.7%
- viability, T/C [26]: 39.8%
- viability, T/C [27]: 21.6%
- viability, T/C [28]: 5.09%
- viability, T/C [29]: 3.01%
- viability, T/C [30]: 4.23%

SMILES: COC(=O)c1ccc2c(C(=Nc3ccc(N(C)C(=O)CN4CCN(C)CC4)cc3)c3ccccc3)c(O)[nH]c2c1 + COc1cc2nc(C)nc(NC(C)c3cc(N)cc(C(F)(F)F)c3)c2cc1OC1CCOC1
- IC50 (second compound 0.1 µM): > 10000 nM
- IC50 (second compound 0.316 µM): > 10000 nM
- IC50 (second compound 1 µM): > 10000 nM
- IC50 (second compound 3.16 µM): 4080 nM
- IC50 (second compound 10 µM): 1590 nM
- viability, T/C [1]: 112%
- viability, T/C [6]: 76.2%
- viability, T/C [7]: 65.9%
- viability, T/C [8]: 85.8%
- viability, T/C [9]: 83.8%
- viability, T/C [10]: 69.5%
- viability, T/C [2]: 60.2%
- viability, T/C [11]: 51.6%
- viability, T/C [12]: 58.8%
- viability, T/C [13]: 71.2%
- viability, T/C [14]: 61.7%
- viability, T/C [15]: 64.1%
- viability, T/C [3]: 72.3%
- viability, T/C [16]: 66.3%
- viability, T/C [17]: 61.5%
- viability, T/C [18]: 71.1%
- viability, T/C [19]: 66.4%
- viability, T/C [20]: 61.4%
- viability, T/C [4]: 73.8%
- viability, T/C [21]: 75.2%
- viability, T/C [22]: 66.7%
- viability, T/C [23]: 71.8%
- viability, T/C [24]: 64.2%
- viability, T/C [25]: 0.24%
- viability, T/C [5]: 78.7%
- viability, T/C [26]: 81.1%
- viability, T/C [27]: 82.3%
- viability, T/C [28]: 79%
- viability, T/C [29]: 6.56%
- viability, T/C [30]: 1.03%
